{
  "source": "paper PMC11566429",
  "about": "(Genes and Environment, 2024)",
  "key": {"[1]": {"tested_on": "TA100, TA1535, TA98, TA1537, and WP2uvrA", "experiment": "Ames test (preincubation method), five standard strains, overall judgement", "details": "for Ames test result (in words, text): presence and absence of S9 mix; for Ames test: presence and absence of rat liver S9 mix", "protocol": "The S9 mix (0.5 mL) consisted of 0.05 mL of the S9 fraction and 0.45 mL of a cofactor solution (Cofactor-1®; Oriental Yeast Co., Ltd.), and contained 8 mM MgCl2, 33 mM KCl, 5 mM glucose-6-phosphate, 4 mM NADPH, 4 mM NADH and 100 mM sodium phosphate (pH 7.4).\nFour strains of Salmonella typhimurium, TA100, TA1535, TA98, and TA1537 and one strain of Escherichia coli, WP2uvrA were used.\nAmes test was conducted using the preincubation method. […] For the tests carried out in the absence of S9 mix, 0.1 mL of the negative control (vehicle), test chemical solution at various concentrations, or positive control solution was added to a test tube, to which 0.5 mL of 100 mM sodium phosphate buffer (pH 7.4) and 0.1 mL of bacterial culture were added. For the tests carried out in the presence of the S9 mix, the S9 mix was added instead of the phosphate buffer. After mixing, the test tubes were preincubated at 37 °C for 20 min in a shaking water bath. After completion, the treatment mixture was immediately added and mixed with 2 mL of 0.05 mM L-histidine/0.05 mM biotin/0.05 mM L-tryptophan molten top agar and the content was poured onto a plate of minimal-glucose agar medium (Tesmedia®, Oriental Yeast). The plates were incubated at 37 °C for approximately 48 h and the revertant colonies that appeared were counted. The sign of the bacterial background lawn was examined as an indicator of cytotoxicity. In addition, the presence or absence of precipitates from the test chemicals was evaluated.\nMultiple tests (dose-finding, main, or confirmatory tests) were conducted. The dose-finding test for almost all the test chemicals was conducted with TA100 in the presence and absence of the S9 mix in a single plate per dose. The main test was conducted in duplicate with the five strains in the presence and absence of the S9 mix. […] Dimethyl sulfoxide (DMSO) was used as a negative control (vehicle).\nMutagenicity was evaluated according to the so-called “two-fold” rule for TA100, TA98, and WP2uvrA, or “three-fold” rule for TA1535 and TA1537 [19]. […] Historical negative control counts were also considered during the evaluation."}, "TA100": {"tested_on": "TA100", "experiment": "Ames test, mutagenic activity in TA100", "assay_type": "cell-based, Salmonella typhimurium", "details": "maximum mutagenic activity", "text": "(§1) The maximum mutagenic activity (rev/mg) was used as an indicator of the magnitude of mutagenicity among those calculated according to the following equation from each representative experiment (main test or confirmatory test) for chemicals that were judged positive: Mutagenic activity (rev/mg) = (number of revertant colonies at each dose—number of revertant colonies for the negative control) / dose (mg)."}, "TA98": {"tested_on": "TA98", "experiment": "Ames test, mutagenic activity in TA98", "assay_type": "cell-based, Salmonella typhimurium", "details": "maximum mutagenic activity", "text": "as §1"}, "[2]": {"tested_on": "TA100, TA1535, TA98, TA1537, TA97", "details": "TA100, TA1535, TA98, TA1537, TA97 (± S9) ref 16; cited from earlier work"}, "TA100, TA98": {"tested_on": "TA100, TA98", "details": "cited from earlier work"}, "TA1537": {"tested_on": "TA1537", "assay_type": "cell-based, Salmonella typhimurium", "details": "TA1537 -S9, maximum mutagenic activity", "text": "as §1"}, "WP2uvrA": {"tested_on": "WP2uvrA", "experiment": "Ames test, mutagenic activity in WP2uvrA", "assay_type": "cell-based, Escherichia coli", "details": "maximum mutagenic activity", "text": "as §1"}, "[3]": {"tested_on": "TA100, TA1535, TA98, TA1537, WP2uvrA", "details": "TA100, TA1535, TA98, TA1537, WP2uvrA (± S9) ref 9; cited from earlier work"}, "TA100, TA98, TA102": {"tested_on": "TA100, TA98, TA102", "details": "TA100, TA98, TA102 (± S9) ref 7; cited from earlier work"}, "[4]": {"tested_on": "TA100, TA1535, TA98, TA1537, TA1538", "details": "presence or absence of S9 mix not clearly indicated ref 7; cited from earlier work"}},
  "note": "Entries after “also recorded” stand apart in the source; their conditions may differ. Read-outs that look alike come from different tables or passages of the source.",
  "data": [
    {"smiles": "c1cnc2cccnc2c1", "note": "[1,5-Naphthyridine]", "values": [
      {"measurement": "Ames test result (in words, text)", "setting": "[1]", "value": "only mutagenic in TA100; also recorded: mutagenic only in the presence of the S9 mix"},
      {"measurement": "Ames test", "setting": "[1]; quinoline analogues", "value": "++ (\"mutagenic (100-1000 rev/mg)\" in Ames test)"},
      {"measurement": "Tester strains showing positive (mutagenic activity in rev/mg)", "setting": "TA100; TA100 +S9", "value": "TA100 +S9 (419) rev/mg"},
      {"measurement": "Tester strains showing positive (mutagenic activity in rev/mg)", "setting": "TA100; TA100 +S9, listed as 1,5-naphthyridine", "value": 419, "unit": "rev/mg"}
    ]},
    {"smiles": "c1cnc2ccncc2c1", "note": "[1,6-Naphthyridine]", "values": [
      {"measurement": "Ames test result (in words, text)", "setting": "[1]", "value": "not mutagenic"}
    ]},
    {"smiles": "c1cnc2cnccc2c1", "note": "[1,7-Naphthyridine]", "values": [
      {"measurement": "Ames test result (in words, text)", "setting": "[1]", "value": "mutagenic in both TA100 and TA98"},
      {"measurement": "Ames test result (in words, text)", "setting": "[1]; listed as 1,7-naphthyridine", "value": "mutagenic both in the presence and absence of the S9 mix"},
      {"measurement": "Ames test", "setting": "[1]; quinoline analogues", "value": "++ (\"mutagenic (100-1000 rev/mg)\" in Ames test)"},
      {"measurement": "Tester strains showing positive (mutagenic activity in rev/mg)", "setting": "TA98; TA98 +S9", "value": 24, "unit": "rev/mg"},
      {"measurement": "Tester strains showing positive (mutagenic activity in rev/mg)", "setting": "TA98; TA98 -S9", "value": 12, "unit": "rev/mg"},
      {"measurement": "Tester strains showing positive (mutagenic activity in rev/mg)", "setting": "TA100; TA100 +S9", "value": 255, "unit": "rev/mg"},
      {"measurement": "Tester strains showing positive (mutagenic activity in rev/mg)", "setting": "TA100; TA100 -S9", "value": 40, "unit": "rev/mg"}
    ]},
    {"smiles": "c1cnc2ncccc2c1", "note": "[1,8-Naphthyridine]", "values": [
      {"measurement": "Ames test result (in words, text)", "setting": "[1]", "value": "only mutagenic in TA100; also recorded: mutagenic only in the presence of the S9 mix"},
      {"measurement": "Ames test", "setting": "[1]; quinoline analogues", "value": "++ (\"mutagenic (100-1000 rev/mg)\" in Ames test)"},
      {"measurement": "Tester strains showing positive (mutagenic activity in rev/mg)", "setting": "TA100; TA100 +S9", "value": "TA100 +S9 (170) rev/mg"},
      {"measurement": "Tester strains showing positive (mutagenic activity in rev/mg)", "setting": "TA100; TA100 +S9, listed as 1,8-naphthyridine", "value": 170, "unit": "rev/mg"}
    ]},
    {"smiles": "c1cc2cnccc2cn1", "note": "[2,6-Naphthyridine]", "values": [
      {"measurement": "Ames test result (in words, text)", "setting": "[1]", "value": "non-mutagenic"}
    ]},
    {"smiles": "c1cc2ccncc2cn1", "note": "[2,7-Naphthyridine]", "values": [
      {"measurement": "Ames test result (in words, text)", "setting": "[1]", "value": "non-mutagenic"}
    ]},
    {"smiles": "c1cnc2cc[nH]c2c1", "note": "[4-Azaindole, 1H-Pyrrolo[3,2-b]pyridine]", "values": [
      {"measurement": "Ames test", "setting": "[1]; indole analogues", "value": "+ (\"mutagenic (< 100 revertants/mg)\" in Ames test)"},
      {"measurement": "Ames test result (in words, text)", "setting": "[1]", "value": "mutagenic in the absence of S9 mix with TA1537"}
    ]},
    {"smiles": "c1ncc2[nH]ccc2n1", "note": "[5H-Pyrrolo[3,2-d]pyrimidine]", "values": [
      {"measurement": "Ames test result (in words, text)", "setting": "[1]", "value": "non-mutagenic"}
    ]},
    {"smiles": "c1ccc2[nH]cnc2c1", "note": "[Benzimidazole]", "values": [
      {"measurement": "Ames test result (in words, text)", "setting": "[1]", "value": "not mutagenic"},
      {"measurement": "Ames test result", "setting": "[2]", "value": "Non-mutagenic"},
      {"measurement": "Ames test result", "setting": "TA100, TA98; TA100, TA98 (-S9) ref 14", "value": "Non-mutagenic"}
    ]},
    {"smiles": "c1ccc2nnccc2c1", "note": "[Cinnoline]", "values": [
      {"measurement": "Ames test result (in words, text)", "setting": "[1]", "value": "mutagenic in TA1537; also recorded: mutagenic only in the absence of the S9 mix"},
      {"measurement": "Ames test result (in words, text)", "setting": "[1]; listed as cinnoline", "value": "mutagenic in the absence of S9 mix with TA1537"},
      {"measurement": "Ames test", "setting": "[1]; quinoline analogues", "value": "+ (\"mutagenic (< 100 revertants/mg)\" in Ames test)"},
      {"measurement": "Tester strains showing positive (mutagenic activity in rev/mg)", "setting": "TA1537", "value": "TA1537 -S9 (13) rev/mg"},
      {"measurement": "Tester strains showing positive (mutagenic activity in rev/mg)", "setting": "TA1537; listed as cinnoline", "value": 13, "unit": "rev/mg"}
    ]},
    {"smiles": "c1ccc2[nH]ncc2c1", "note": "[Indazole]", "values": [
      {"measurement": "Ames test", "setting": "[1]; indole analogues", "value": "+ (\"mutagenic (< 100 revertants/mg)\" in Ames test)"},
      {"measurement": "Ames test result (in words, text)", "setting": "[1]", "value": "mutagenic in the presence and absence of S9 mix with WP2uvrA"},
      {"measurement": "Tester strains showing positive (mutagenic activity in rev/mg)", "setting": "WP2uvrA; WP2uvrA +S9", "value": 38, "unit": "rev/mg"},
      {"measurement": "Tester strains showing positive (mutagenic activity in rev/mg)", "setting": "WP2uvrA; WP2uvrA -S9", "value": 40, "unit": "rev/mg"},
      {"measurement": "Ames test result", "setting": "TA100, TA98; TA100, TA98 (-S9) ref 14", "value": "Non-mutagenic"}
    ]},
    {"smiles": "c1ccc2cnccc2c1", "note": "[Isoquinoline]", "values": [
      {"measurement": "Ames test result (in words, text)", "setting": "[1]", "value": "non-mutagenic"},
      {"measurement": "Ames test result", "setting": "TA100, TA98; TA100, TA98 (± S9) ref 10", "value": "Non-mutagenic"}
    ]},
    {"smiles": "c1ccc2cnncc2c1", "note": "[Phthalazine]", "values": [
      {"measurement": "Ames test result (in words, text)", "setting": "[1]", "value": "non-mutagenic"},
      {"measurement": "Ames test result", "setting": "TA100, TA98; TA100, TA98 (± S9) ref 11", "value": "Non-mutagenic"}
    ]},
    {"smiles": "c1cnc2[nH]ncc2c1", "note": "[Pyrazolo[3,4-b]pyridine]", "values": [
      {"measurement": "Ames test result (in words, text)", "setting": "[1]", "value": "non-mutagenic"}
    ]},
    {"smiles": "c1ccc2ncncc2c1", "note": "[Quinazoline]", "values": [
      {"measurement": "Ames test result (in words, text)", "setting": "[1]", "value": "non-mutagenic"}
    ]},
    {"smiles": "c1ccc2ncccc2c1", "note": "[Quinoline]", "values": [
      {"measurement": "Ames test result (in words, text)", "setting": "[1]", "value": "only mutagenic in TA100; also recorded: mutagenic only in the presence of the S9 mix"},
      {"measurement": "Ames test", "setting": "[1]; quinoline analogues", "value": "+++ (\"mutagenic (>1000 revertants/mg)\" in Ames test)"},
      {"measurement": "Ames test result", "setting": "[3]", "value": "Mutagenic (+ S9) in TA100, TA98, WP2uvrA"}
    ]},
    {"smiles": "c1ccc2nccnc2c1", "note": "[Quinoxaline]", "values": [
      {"measurement": "Ames test result (in words, text)", "setting": "[1]", "value": "non-mutagenic"},
      {"measurement": "Ames test result", "setting": "TA100, TA98, TA102", "value": "Mutagenic (+ S9) in TA98"},
      {"measurement": "Ames test result", "setting": "[4]", "value": "Non-mutagenic"}
    ]}
  ]
}
